Measurements reported in ChEMBL document CHEMBL1201862, “PubChem BioAssay data set” (2004).
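Dose response: 5 concentrations. Exposure: 48 h. Format: 96-well plates. Endpoint: linear interpolation; highest concentration if not reached. GI50 marks 50% less growth.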 Active and inactive are the calls of the source. No stated cut-off is given here; in the data, active = GI50 up to about 1.1 µM and inactive = higher.

Tests used:
Assay in all cases: NCI tumour cell line growth inhibition, 48 h
ACHN = system: ACHN
CAKI-1 = system: CAKI-1
COLO 205 = system: COLO 205
EKVX = system: EKVX
HCT-15 = system: HCT-15
MCF7 = system: MCF7
MDA-N = system: MDA-N
NCI-H23 = system: NCI-H23
NCI-H522 = system: NCI-H522
NCI/ADR-RES = system: NCI/ADR-RES
OVCAR-5 = system: OVCAR-5
PC-3 = system: PC-3
RPMI-8226 = system: RPMI-8226
SK-MEL-5 = system: SK-MEL-5
SN12C = system: SN12C
SR = system: SR
T47D = system: T47D
UACC-62 = system: UACC-62

Compound | GI50 (ACHN) | GI50 (CAKI-1) | GI50 (COLO 205) | GI50 (EKVX) | GI50 (HCT-15) | GI50 (MCF7) | GI50 (MDA-N) | GI50 (NCI-H23) | GI50 (NCI-H522) | GI50 (NCI/ADR-RES) | GI50 (OVCAR-5) | GI50 (PC-3) | GI50 (RPMI-8226) | GI50 (SK-MEL-5) | GI50 (SN12C) | GI50 (SR) | GI50 (T47D) | GI50 (UACC-62)
N#Cc1nc(-c2ccccn2)c(-c2ccccn2)nc1C#N | 1.11 µM (active) | 2.04 µM (inactive) | 1.97 µM (inactive) | 3.15 µM (inactive) | 0.682 µM | 1.22 µM (inactive) | 2.61 µM (inactive) | 2.9 µM (inactive) | 1.64 µM (inactive) | 1.8 µM (inactive) | 3.32 µM (inactive) | 4.88 µM (inactive) | 2.83 µM (inactive) | 1.85 µM (inactive) | 4.82 µM (inactive) | 1.82 µM (inactive) | 1.69 µM (inactive) | 0.47 µM (active)
CCOC(=O)C(CS)NC(=O)CCCCCCCC(=O)NC(CS)C(=O)OCC (stereo not drawn) | > 100 µM (inactive) | > 100 µM (inactive) | > 100 µM (inactive) | > 100 µM (inactive) | > 100 µM | > 100 µM (inactive) | > 100 µM (inactive) | > 100 µM (inactive) | 49.1 µM (inactive) | > 100 µM (inactive) | > 100 µM (inactive) | > 100 µM (inactive) | > 100 µM (inactive) | > 100 µM (inactive) | > 100 µM (inactive) | 36.3 µM (inactive) | > 100 µM (inactive) | > 100 µM (inactive)
OC1CN2Cc3cc4c(cc3[C@]13C=C[C@@H](O)CC23)OCO4 (stereo partly drawn) | 7.85 µM (inactive) | 11.9 µM (inactive) | 22.3 µM (inactive) | 15.4 µM (inactive) | 30.3 µM | 16.4 µM (inactive) | 17 µM (inactive) | 36.1 µM (inactive) | 27.3 µM (inactive) | 54.3 µM (inactive) | 23.9 µM (inactive) | 27.6 µM (inactive) | 32.6 µM (inactive) | 22.9 µM (inactive) | 25.1 µM (inactive) | 12.4 µM (inactive) | 4.82 µM (inactive) | 33 µM (inactive)
Cn1c(=O)oc2cc(C(=O)CSC(=S)N3CCCCCC3)ccc21 | > 100 µM (inactive) | > 100 µM (inactive) | > 100 µM (inactive) | > 100 µM (inactive) | 81.1 µM | > 100 µM (inactive) | > 100 µM (inactive) | > 100 µM (inactive) | > 100 µM (inactive) | 54.2 µM (inactive) | > 100 µM (inactive) | 99.1 µM (inactive) | > 100 µM (inactive) | > 100 µM (inactive) | > 100 µM (inactive) | 56.2 µM (inactive) | 86.7 µM (inactive) | > 100 µM (inactive)
CCOC(=O)C12OC(CCC1=O)C(C(=O)OC)=C2C(=O)OC (stereo not drawn) | > 10 µM (inactive) | > 10 µM (inactive) | > 10 µM (inactive) | > 10 µM (inactive) | > 10 µM | > 10 µM (inactive) | > 10 µM (inactive) | > 10 µM (inactive) | > 10 µM (inactive) | > 10 µM (inactive) | > 10 µM (inactive) | > 10 µM (inactive) | > 10 µM (inactive) | > 10 µM (inactive) | > 10 µM (inactive) | > 10 µM (inactive) | > 10 µM (inactive) | > 10 µM (inactive)
Cc1noc(C)c1-n1nc2ccc3nonc3c2n1 | > 88.5 µM (inactive) | > 83.8 µM (inactive) | > 100 µM (inactive) | 35.9 µM (inactive) | > 100 µM | > 67.8 µM (inactive) | > 100 µM (inactive) | > 72.8 µM (inactive) | > 78.7 µM (inactive) | > 100 µM (inactive) | > 100 µM (inactive) | > 100 µM (inactive) | > 100 µM (inactive) | > 100 µM (inactive) | > 100 µM (inactive) | > 100 µM (inactive) | > 67.3 µM (inactive) | > 59.8 µM (inactive)
